Laboratory results: US20160030522A1, “COMBINATION THERAPY TO IMPROVE SOFT TISSUE HEALING, FAT GRAFT HEALING, ENDOCHONDRAL BONE HEALING AND OSTEOINTEGRATION” (priority 2013, published 2016)

Tested on: trephine defect
Assay: Bony ingrowth / regeneration in the trephine defect after systemic treatment of mice
Format: in vivo
Conditions: systemic administration
Protocol: Mice and Injury Model: All experiments are performed in accordance with the IACUC guidelines. C57BL/6J wild-type mice aged 8-12 weeks are purchased from Jackson Laboratories (Bar Harbor, Me.). Mice are randomized to receive one of #1) no injury; #2) an implant stud having a porous polyethylene-polypropylene coating placed in a defect in the distal femur. […] Treatment Groups: Mice in each of the 4 experimental groups are randomly assigned to receive once daily one of: #1) saline i.p. injection; #2) AMD3100 (10 mg/kg, i.p.; PLERIXAFOR®; Genzyme Corp., Cambridge, Mass.) injection; #3) Teriparatide (0.285 mcg/kg, i.p.; FORTEO®; Eli Lilly and Company, Indianapolis, Ind.); or #4) AMD3100 (10 mg/kg, i.p.; PLERIXAFOR®; Genzyme Corp., Cambridge, Mass.); and teriparatide (0.285 mcg/kg, i.p.; FORTEO®; Eli Lilly and Company, Indianapolis, Ind.). […] BM is flushed from mouse long bones using PBS/10% FBS/5% EDTA, as previously described. Mononuclear cells (MNCs) from the peripheral blood and BM are isolated by density gradient centrifugation using Histopaque 1083 (Sigma-Aldrich; St. Louis, Mo.). […] Adobe Photoshop CS3 is used to segment and quantify positive CD31 staining. The vascular density of mouse wounds is determined by quantifying the total area of CD31+ staining (red) per megapixel (1×106 pixels square area) of wound stained.

| Structure (SMILES) | bony ingrowth / bony regeneration |
| --- | --- |
| c1cc(CN2CCCNCCNCCCNCC2)ccc1CN1CCCNCCNCCCNCC1 [AMD3100] | 59.7% |
| CC[C@H](C)[C@H](NC(=O)[C@H](CCC(=O)O)NC(=O)[C@H](CO)NC(=O)[C@@H](NC(=O)[C@@H](N)CO)C(C)C)C(=O)N[C@@H](CCC(N)=O)C(=O)N[C@@H](CC(C)C)C(=O)N[C@@H](CCSC)C(=O)N[C@@H](Cc1cnc[nH]1)C(=O)N[C@@H](CC(N)=O)C(=O)N[C@@H](CC(C)C)C(=O)NCC(=O)N[C@@H](CCCCN)C(=O)N[C@@H](Cc1cnc[nH]1)C(=O)N[C@@H](CC(C)C)C(=O)N[C@@H](CC(N)=O)C(=O)N[C@@H](CO)C(=O)N[C@@H](CCSC)C(=O)N[C@@H](CCC(=O)O)C(=O)N[C@@H](CCCN=C(N)N)C(=O)N[C@H](C(=O)N[C@@H](CCC(=O)O)C(=O)N[C@@H](Cc1c[nH]c2ccccc12)C(=O)N[C@@H](CC(C)C)C(=O)N[C@@H](CCCN=C(N)N)C(=O)N[C@@H](CCCCN)C(=O)N[C@@H](CCCCN)C(=O)N[C@@H](CC(C)C)C(=O)N[C@@H](CCC(N)=O)C(=O)N[C@@H](CC(=O)O)C(=O)N[C@H](C(=O)N[C@@H](Cc1cnc[nH]1)C(=O)N[C@@H](CC(N)=O)C(=O)N[C@@H](Cc1ccccc1)C(=O)O)C(C)C)C(C)C [PTH] | 56% |
